From PubChem BioAssay (NCI)
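1) Cells in 96-well plates. 2) Compound, 48 h, 5 concentrations. 3) Linear interpolation between surrounding doses. 4) Unreached endpoint = highest concentration. At the GI50, growth is halved. The concentration for full growth arrest is given as TGI.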

Columns and labels:
Experiment in all cases: DTP human tumour cell line panel, 48 h
786-0 renal = test system: 786-0 renal
A498 renal = test system: A498 renal
A549 NSCLC = test system: A549 NSCLC
ACHN renal = test system: ACHN renal
CAKI-1 renal = test system: CAKI-1 renal
DMS 114 small cell lung = test system: DMS 114 small cell lung
DMS 273 small cell lung = test system: DMS 273 small cell lung
EKVX NSCLC = test system: EKVX NSCLC
HCC-2998 colon = test system: HCC-2998 colon
HCT-116 colon = test system: HCT-116 colon
HCT-15 colon = test system: HCT-15 colon
HL-60(TB) leukemia = test system: HL-60(TB) leukemia
HOP-62 NSCLC = test system: HOP-62 NSCLC
HT29 colon = test system: HT29 colon
IGROV1 ovarian = test system: IGROV1 ovarian
K-562 leukemia = test system: K-562 leukemia
KM12 colon = test system: KM12 colon
KM20L2 colon = test system: KM20L2 colon
LOX IMVI melanoma = test system: LOX IMVI melanoma
LXFL 529 NSCLC = test system: LXFL 529 NSCLC
M14 melanoma = test system: M14 melanoma
M19-MEL melanoma = test system: M19-MEL melanoma
MALME-3M melanoma = test system: MALME-3M melanoma
MOLT-4 leukemia = test system: MOLT-4 leukemia
NCI-H226 lung = test system: NCI-H226 lung
NCI-H460 lung = test system: NCI-H460 lung
NCI-H522 lung = test system: NCI-H522 lung
OVCAR-3 ovarian = test system: OVCAR-3 ovarian
OVCAR-4 ovarian = test system: OVCAR-4 ovarian
OVCAR-5 ovarian = test system: OVCAR-5 ovarian
OVCAR-8 ovarian = test system: OVCAR-8 ovarian
RPMI-8226 leukemia = test system: RPMI-8226 leukemia
RXF 393 renal = test system: RXF 393 renal
RXF-631 renal = test system: RXF-631 renal
SF-268 CNS = test system: SF-268 CNS
SF-295 CNS = test system: SF-295 CNS
SF-539 CNS = test system: SF-539 CNS
SK-MEL-2 melanoma = test system: SK-MEL-2 melanoma
SK-MEL-28 melanoma = test system: SK-MEL-28 melanoma
SK-MEL-5 melanoma = test system: SK-MEL-5 melanoma
SK-OV-3 ovarian = test system: SK-OV-3 ovarian
SN12C renal = test system: SN12C renal
SNB-19 CNS = test system: SNB-19 CNS
SNB-75 CNS = test system: SNB-75 CNS
SNB-78 CNS = test system: SNB-78 CNS
SR leukemia = test system: SR leukemia
SW-620 colon = test system: SW-620 colon
U251 CNS = test system: U251 CNS
UACC-257 melanoma = test system: UACC-257 melanoma
UACC-62 melanoma = test system: UACC-62 melanoma
UO-31 renal = test system: UO-31 renal
XF 498 CNS = test system: XF 498 CNS

## CC[O-].CC[O-].O=C([CH-]C(=O)c1cccnc1)c1ccccc1.O=C([CH-]C(=O)c1cccnc1)c1ccccc1.[Ti+4]
786-0 renal
  GI50: 61.1 µM
  TGI: > 100 µM
A498 renal
  GI50: > 100 µM
  TGI: > 100 µM
A549 NSCLC
  GI50: > 100 µM
  TGI: > 100 µM
ACHN renal
  GI50: 53.4 µM
  TGI: > 100 µM
CAKI-1 renal
  GI50: > 100 µM
  TGI: > 100 µM
DMS 114 small cell lung
  GI50: > 100 µM
  TGI: > 100 µM
DMS 273 small cell lung
  GI50: 68.6 µM
  TGI: > 100 µM
EKVX NSCLC
  GI50: > 100 µM
  TGI: > 100 µM
HCC-2998 colon
  GI50: > 100 µM
  TGI: > 100 µM
HCT-116 colon
  GI50: > 100 µM
  TGI: > 100 µM
HCT-15 colon
  GI50: 18.3 µM
  TGI: > 100 µM
HL-60(TB) leukemia
  GI50: 27.9 µM
  TGI: 85 µM
HOP-62 NSCLC
  GI50: 48.4 µM
  TGI: > 100 µM
HT29 colon
  GI50: 57.1 µM
  TGI: > 100 µM
IGROV1 ovarian
  GI50: > 100 µM
  TGI: > 100 µM
K-562 leukemia
  GI50: 36.2 µM
  TGI: > 100 µM
KM12 colon
  GI50: 32.7 µM
  TGI: > 100 µM
KM20L2 colon
  GI50: 62 µM
  TGI: > 100 µM
LOX IMVI melanoma
  GI50: > 100 µM
  TGI: > 100 µM
LXFL 529 NSCLC
  GI50: 43.6 µM
  TGI: > 100 µM
M14 melanoma
  GI50: 60.4 µM
  TGI: > 100 µM
M19-MEL melanoma
  GI50: 77.7 µM
  TGI: > 100 µM
MALME-3M melanoma
  GI50: > 100 µM
  TGI: > 100 µM
MOLT-4 leukemia
  GI50: 13.6 µM
  TGI: > 100 µM
NCI-H226 lung
  GI50: 68.1 µM
  TGI: > 100 µM
NCI-H460 lung
  GI50: 31.2 µM
  TGI: > 100 µM
NCI-H522 lung
  GI50: 26.1 µM
  TGI: > 100 µM
OVCAR-3 ovarian
  GI50: > 100 µM
  TGI: > 100 µM
OVCAR-4 ovarian
  GI50: > 100 µM
  TGI: > 100 µM
OVCAR-5 ovarian
  GI50: > 100 µM
  TGI: > 100 µM
OVCAR-8 ovarian
  GI50: 26.2 µM
  TGI: > 100 µM
RPMI-8226 leukemia
  GI50: 55.8 µM
  TGI: > 100 µM
RXF 393 renal
  GI50: 19.7 µM
  TGI: 70.4 µM
RXF-631 renal
  GI50: 25.9 µM
  TGI: > 100 µM
SF-268 CNS
  GI50: 88.3 µM
  TGI: > 100 µM
SF-295 CNS
  GI50: 77.6 µM
  TGI: > 100 µM
SF-539 CNS
  GI50: 43.1 µM
  TGI: > 100 µM
SK-MEL-2 melanoma
  GI50: > 100 µM
  TGI: > 100 µM
SK-MEL-28 melanoma
  GI50: > 100 µM
  TGI: > 100 µM
SK-MEL-5 melanoma
  GI50: > 100 µM
  TGI: > 100 µM
SK-OV-3 ovarian
  GI50: 91.8 µM
  TGI: > 100 µM
SN12C renal
  GI50: > 100 µM
  TGI: > 100 µM
SNB-19 CNS
  GI50: 50 µM
  TGI: > 100 µM
SNB-75 CNS
  GI50: 19.9 µM
  TGI: 69 µM
SNB-78 CNS
  GI50: > 100 µM
  TGI: > 100 µM
SR leukemia
  GI50: 25.5 µM
  TGI: > 100 µM
SW-620 colon
  GI50: 96.8 µM
  TGI: > 100 µM
U251 CNS
  GI50: 27.2 µM
  TGI: > 100 µM
UACC-257 melanoma
  GI50: 52.2 µM
  TGI: > 100 µM
UACC-62 melanoma
  GI50: > 100 µM
  TGI: > 100 µM
UO-31 renal
  GI50: > 100 µM
  TGI: > 100 µM
XF 498 CNS
  GI50: 32.8 µM
  TGI: 90.6 µM
